Assay results reported in publication PMC6792352, “Limited Chemical Structural Diversity Found to Modulate Thyroid Hormone Receptor in the Tox21 Chemical Library” (Environmental Health Perspectives, 2019).
Where a name gives a salt, the structure may show the parent alone.

experiment: in vitro; conditions: rat, gh3-tre-luc cells, AC50 (uM) modified / 1000

Compound | CC50 at 24 h
CN1CCCC(n2nc(Cc3ccc(Cl)cc3)c3ccccc3c2=O)CC1 (stereo not shown) [Azelastine hydrochloride] | 12.6 µM
CCC1(c2cnc[nH]2)Cc2ccccc2C1 [Atipamezole hydrochloride] | > 50 µM
O=C(COc1ccc(Cl)cc1)OCCNC12CC3CC(CC(C3)C1)C2 [Adafenoxate] | > 50 µM
CCN(CC)/[N+]([O-])=N/O [1,1-Diethyl-2-hydroxy-2-nitrosohydrazine diethylamine] | > 50 µM
O=C1CN=C(c2ccccc2)c2cc(Cl)ccc2N1 [Desmethyldiazepam] | > 50 µM
CC(C)(C)C1CCC(O)CC1 (stereo not shown) [4-tert-Butylcyclohexanol] | > 90 µM
O=C(O)c1nc(Cl)c(Cl)c(Cl)c1Cl [3,4,5,6-Tetrachloropyridine-2-carboxylic acid] | > 90 µM
CCCCCCCCCCCC[N+](C)(C)CCCS(=O)(=O)O | 55.3 µM
COc1ccc(N)c(OC)c1 [2,4-Dimethoxyaniline hydrochloride] | > 50 µM
CC/C=C\C/C=C\C/C=C\CCCCCCCC(=O)O [Linolenic acid] | > 90 µM
c1ccc(OCc2ccc(CCCN3CCOCC3)cc2)cc1 [Fomocaine] | 16.1 µM
CCOC(=O)COC(=O)c1ccccc1C(=O)OCC [Ethyl phthalyl ethyl glycolate] | > 90 µM
CC(=O)Nc1cc(S(=O)(=O)O)cc2cc(S(=O)(=O)O)c(N=Nc3ccccc3)c(O)c12 [C.I. Acid Red 1] | 53.1 µM
O=C(CCCCCCCCC#CI)Oc1ccccc1 [Phenyl 11-iodo-10-undecynoate] | > 50 µM
Cc1ccc(NC(=O)N(C)C)cc1NC(=O)N(C)C [3,3'-(4-Methylbenzene-1,3-diyl)bis(1,1-dimethylurea)] | > 90 µM
Cn1c(=O)c2[nH]c(Br)nc2n(C)c1=O [8-Bromotheophylline] | > 50 µM
c1cc(OCC2CO2)cc(OCC2CO2)c1 (stereo not shown) [Diglycidyl resorcinol ether] | 17.3 µM
Nc1ccccc1S(=O)(=O)c1ccccc1 [2-(Phenylsulfonyl)aniline] | > 90 µM
CC1(C)CC(N)CC(C)(CN)C1 (stereo not shown) [Isophorone diamine] | > 90 µM
CC(C)=CCC/C(C)=C/C=C/C(C)=C/C=C/C(C)=C/C=C/C=C(C)/C=C/C=C(C)/C=C/C=C(\C)CCC=C(C)C [Lycopene] | > 50 µM
CCc1cc(Cc2cc(CC)c(N)c(CC)c2)cc(CC)c1N [4,4'-Methylenebis(2,6-diethylaniline)] | 61.9 µM
CCc1cc(Cc2cc(CC)cc(C(C)(C)C)c2O)c(O)c(C(C)(C)C)c1 [2,2'-Methylenebis(ethyl-6-tert-butylphenol)] | 7.35 µM
C#C[C@]1(O)CC[C@H]2[C@@H]3CCc4cc(OC)ccc4[C@H]3CC[C@@]21C [Mestranol] | > 90 µM
Cc1cc(C)c(C)c(C)c1 [1,2,3,5-Tetramethylbenzene] | > 90 µM
C/C=C(\C)C(=O)OCCc1ccccc1 [Phenethyl tiglate] | > 90 µM

Compound | CC50 at 24 h
NC(=O)CC[C@@H]1NC(=O)[C@H](Cc2ccccc2)NC(=O)[C@H](Cc2ccc(O)cc2)NC(=O)CCSSC[C@@H](C(=O)N2CCC[C@H]2C(=O)N[C@H](CCCN=C(N)N)C(=O)NCC(N)=O)NC(=O)[C@H](CC(N)=O)NC1=O [Desmopressin] | > 50 µM
CCCOC(=O)C(C)O (stereo not shown) [Propanoic acid,2-hydroxy-,propylester] | > 90 µM
CCCC[n+]1ccccc1C [1-Butyl-2-methylpyridinium bromide] | > 90 µM
CCc1occc(=O)c1O [2-Ethyl-3-hydroxy-4H-pyran-4-one] | > 90 µM
Nc1ccc(C(=O)OCCCOC(=O)c2ccc(N)cc2)cc1 [Propane-1,3-diyl bis(4-aminobenzoate)] | > 90 µM
CC(C)Oc1ccc2c(=O)c(-c3ccccc3)coc2c1 [Ipriflavone] | > 50 µM
CC1=C(/C=C/C(C)=C/C=C/C(C)=C/C=C/C=C(C)/C=C/C=C(C)/C=C/C2=C(C)CCCC2(C)C)C(C)(C)CCC1 [beta-Carotene] | > 50 µM
COc1ccc(-c2nc3ccc(C4=NNC(=O)CC4C)cc3[nH]2)cc1 (stereo not shown) [Pimobendan hydrochloride] | 36.4 µM
SCCOCCOCCS [2,2'-[Ethane-1,2-diylbis(oxy)]diethanethiol] | > 90 µM
CCCCOCN(C(=O)CCl)c1c(CC)cccc1CC [Butachlor] | 49.4 µM
CCCCNC(=O)NS(=O)(=O)c1ccc(C)cc1 [Tolbutamide] | > 90 µM
CC(=O)[C@@]1(O)CC[C@H]2[C@@H]3C=C(Cl)C4=CC(=O)CC[C@]4(C)[C@H]3CC[C@@]21C [Chlormadinone] | > 50 µM
Nc1cc(Cl)ccc1Cl [2,5-Dichloroaniline] | > 90 µM
CCCCCCCCCCCCN(CCO)CCO [Lauryldiethanolamine] | 14.8 µM
Nc1c(Br)cc(Br)cc1CN[C@H]1CC[C@H](O)CC1 [Ambroxolhydrochloride] | > 50 µM
CC(C)(Cc1c[nH]c2ccccc12)NCC(O)COc1ccccc1C#N (stereo not shown) [Bucindolol] | 20.5 µM
Nc1cccc(S(=O)(=O)c2cccc(N)c2)c1 [3,3'-Sulphonyldianiline] | > 90 µM
NC(=O)N(O)[C@@H]1C=C[C@H](Oc2cccc(Oc3ccc(F)cc3)c2)C1 [CJ-013790] | > 90 µM
CN1CCOC(c2ccccc2)c2ccccc2C1 (stereo not shown) [Nefopam hydrochloride] | > 20 µM
Nc1nc2ncc(CNc3ccc(C(=O)N[C@@H](CCC(=O)O)C(=O)O)cc3)nc2c(=O)[nH]1 [Folic acid] | > 90 µM
C=CC(=O)CCCCC [1-Octen-3-one] | > 100 µM
O=C(c1ccc(OCCN2CCCCC2)cc1)c1c(-c2ccc(O)cc2)sc2cc(O)ccc12 [Raloxifene] | 3.84 µM
COc1nc(C)nc(NC(=O)NS(=O)(=O)c2ccccc2Cl)n1 [Chlorsulfuron] | > 90 µM
O=C1NC2NC(=O)NC2N1 (stereo not shown) [Glycoluril] | > 90 µM
CCCCOCCOCCOCCCC [Diethylene glycol dibutyl ether] | > 90 µM

Compound | CC50 at 24 h
C=C[C@]1(C)C[C@@H](OC(=O)CSC(C)(C)CNC(=O)[C@H](N)C(C)C)[C@]2(C)[C@H](C)CC[C@]3(CCC(=O)[C@H]32)[C@@H](C)[C@@H]1O [Valnemulin] | 2.37 µM
O=C1CCC(=O)N1Cl [N-Chlorosuccinimide] | > 90 µM
CCN(Cc1cccc(S(=O)(=O)O)c1)c1ccc(C(=C2C=CC(=[N+](CC)Cc3cccc(S(=O)(=O)O)c3)C=C2)c2ccccc2S(=O)(=O)[O-])cc1 [FD&C Blue No. 1] | 50.7 µM
S=C=Nc1cccc2ccccc12 [alpha-Naphylisothiocyanate] | > 90 µM
CCCCCCCCC(=O)OCC [Ethyl nonanoate] | > 90 µM
O=C(O)c1cccnc1 [Nicotinic acid] | > 50 µM
O=C(c1ccccc1O)c1ccccc1O [2,2'-Dihydroxybenzophenone] | > 90 µM
CCSC(=O)N(CC)CC [Ethiolate] | > 90 µM
FC(F)(F)c1ccccc1-n1ccnc1 [1-[2-(Trifluoromethyl)phenyl]-1H-imidazole] | > 50 µM
CC(CN(C)C)CN1c2ccccc2Sc2ccccc21 (stereo not shown) [Trimeprazine tartrate] | 4.36 µM
O=C1O[C@H](CO)[C@@H](O)[C@H](O)[C@H]1O [Gluconolactone] | > 90 µM
Cc1cn([C@H]2C=C[C@@H](CO)O2)c(=O)[nH]c1=O [Stavudine] | > 90 µM
Brc1cc(Oc2cc(Br)c(Br)c(Br)c2Br)c(Br)c(Br)c1Br [Octabromodiphenyl ether] | > 90 µM
Nc1ccc([N+](=O)[O-])cc1O [2-Amino-5-nitrophenol] | 82.7 µM
NC(=O)c1ncn([C@@H]2O[C@H](CO)[C@@H](O)[C@H]2O)c1N [Acadesine] | > 50 µM
O=C1OC2(c3ccccc31)c1cc(Br)c(O)c(Br)c1Oc1c2cc(Br)c(O)c1Br [2',4',5',7'-Tetrabromofluorescein] | 5.55 µM
COS(=O)(=O)O [Sodium methyl sulfate] | > 90 µM
C[Si](C)(C)O[Si](C)(C)C [Hexamethyldisiloxane] | > 90 µM
CCCCC[C@@H](O)[C@H]1C(=O)O[C@H](C)[C@@H](O)/C=C/C=C/C=C/C=C/C=C(\C)[C@@H](O)[C@H](O)[C@H](O)C[C@H](O)C[C@H](O)C[C@H](O)C[C@H](O)C[C@@H]1O [Pentamycin] | > 50 µM
c1ccc2c(c1)Cc1ccccc1-2 [Fluorene] | > 90 µM
CC(=O)c1c(C)c([N+](=O)[O-])c(C(C)(C)C)c([N+](=O)[O-])c1C [Musk ketone] | 80.9 µM
O=c1[nH]cnc2[nH]cc(CN3CCCCC3)c12 [5-(Piperidin-1-ylmethyl)-3,7-dihydro-4H-pyrrolo[2,3-d]pyrimidin-4-one] | > 50 µM
CCCCN1CCCC[C@H]1C(=O)Nc1c(C)cccc1C [Levobupivacaine hydrochloride] | > 50 µM

same assay, conditions: rat, gh3-tre-luc cells, AC50 (uM) modified / 1000, Tox21_110001=Tox21_111257; viability, 1 nM T3 present, 24 h

Compound | CC50 at 24 h
CNC(=O)OCC[N+](C)(C)C [Methylcarbamylcholine chloride] | > 50 µM

same assay, conditions: rat, gh3-tre-luc cells, AC50 (uM) modified / 1000, Tox21_110001=Tox21_112097; viability, 1 nM T3 present, 24 h

Compound | CC50 at 24 h
Oc1ccccc1-c1ccccc1 [Sodium 2-phenylphenate tetrahydrate] | > 50 µM

same assay, conditions: rat, gh3-tre-luc cells, AC50 (uM) modified / 1000, Tox21_110001=Tox21_112752; viability, 1 nM T3 present, 24 h

Compound | CC50 at 24 h
CCC1(CC)C(=O)NC(=O)N(C)C1=O [Metharbital] | > 50 µM

same assay, conditions: rat, gh3-tre-luc cells, AC50 (uM) modified / 1000, Tox21_110001=Tox21_201255; viability, 1 nM T3 present, 24 h

Compound | CC50 at 24 h
CCN(CC)N=O [N-Nitrosodiethylamine] | > 90 µM

same assay, conditions: rat, gh3-tre-luc cells, AC50 (uM) modified / 1000, Tox21_110001=Tox21_301582; viability, 1 nM T3 present, 24 h

Compound | CC50 at 24 h
CCOC(=O)CCN(SN(C)C(=O)Oc1cccc2c1OC(C)(C)C2)C(C)C [Benfuracarb] | 64 µM

same assay, conditions: rat, gh3-tre-luc cells, AC50 (uM) modified / 1000, Tox21_110001=Tox21_301642; viability, 1 nM T3 present, 24 h

Compound | CC50 at 24 h
CC(C=O)Cc1ccc2c(c1)OCO2 (stereo not shown) | > 90 µM
